Reference: patent publication US20230119894A1, “THERAPEUTIC OR PROPHYLACTIC METHOD FOR DIABETES USING COMBINATION MEDICINE” (Japan Tobacco Inc., priority 2019, published 2023)
Where “and” joins values, the source holds several entries; their conditions need not be identical. Equal values may be shown once.

Assays:
[1] = tested on: Salmonella typhimurium TA1535; experiment: Ames test (reverse mutation test), TA1535
Method: (§1) Metabolites 1, 3, and 5 and Metabolites C to H were each tested herein. The purpose of this test is to evaluate the potential of each metabolite to induce reverse mutations in the standard strains of Salmonella typhimurium (TA98, TA1537, TA100, and TA1535) and Escherichia coli (WP2uvrA), in either the presence or absence of a rat liver metabolic activation system (S9 mix).
(§2) The solvent used herein was dimethyl sulfoxide (DMSO, 100 μL/plate).
(§3) The test was performed by the pre-incubation method with or without S9 mix. When the test was performed without S9 mix, sodium phosphate buffer solution (pH 7.4) was added.
(§4) 0.5 mL of S9 mix or 0.5 mL of 0.1 mol/L sodium phosphate buffer solution (pH 7.4), and 0.1 mL of the bacterial culture solution were added to a test tube containing 0.1 mL of the negative control formulation (DMSO alone), the metabolite, or the positive control formulation. The mixtures were pre-incubated at 37° C. for 20 minutes while shaking. After the pre-incubation period, 2 mL of top agar were added and the mixtures were vortex-mixed and seeded onto plates. Two plates per treatment were used. Each plate was incubated at 37±1° C. for 48 hours or more and the revertant colonies were counted. The mean number of revertant colonies for each treatment plate was then calculated. […] Evaluation was based on mean values with no statistical comparisons being used.

[2] = tested on: Salmonella typhimurium TA98; experiment: Ames test (reverse mutation test), TA98; settings: for Number of revertant colonies TA98: S9 Mix +, mean number of each plate
Method: as §1, §2, §3, §4

[3] = tested on: Salmonella typhimurium TA1537; experiment: Ames test (reverse mutation test), TA1537; settings: for Number of revertant colonies: TA1537; for Number of revertant colonies TA1537: S9 Mix +, mean number of each plate
Method: as §1, §2, §3, §4

[4] = tested on: Salmonella typhimurium TA100; experiment: Ames test (reverse mutation test), TA100; settings: S9 Mix +, mean number of each plate
Method: as §1, §2, §3, §4

Escherichia coli WP2uvrA = experiment: Ames test (reverse mutation test), WP2uvrA; type: cell-based; settings: S9 Mix +, mean number of each plate

Nc1ccc2cc3ccccc3cc2c1 [Example 2AA, 2-Aminoanthracene, reference compound]
Number of revertant colonies ([1]; S9 mix +, 2.0 μg/plate (positive control)): 223 and 146 and 250
Number of revertant colonies ([2]; TA98, S9 mix +, 0.5 μg/plate (positive control)): 289
Number of revertant colonies ([3]; S9 mix +, 2 μg/plate (positive control)): 135

Cl.Nc1c2ccccc2nc2ccccc12.O [Example 9AA, 9-Aminoacridine hydrochloride monohydrate, reference compound]
Number of revertant colonies ([3]; S9 mix −, 80 μg/plate (positive control)): 372

Nc1cc(-c2cc(F)cc(OC(F)(F)F)c2)n(-c2cncc(C(F)(F)F)c2)n1 [Metabolite 5]
Number of revertant colonies ([1]; S9 mix +, 185 μg/plate): 9
Number of revertant colonies ([1]; S9 mix −, 6.9 μg/plate): 9
Number of revertant colonies ([1]; S9 mix −, 556 μg/plate): 6

CC(C)(OCc1cc(F)cc(-c2cc(N)nn2-c2ccc(F)cc2)c1)C(F)(F)F [Metabolite D, reference compound]
Number of revertant colonies TA100 ([4]; dose 2.3 μg/plate): 139
Number of revertant colonies TA100 ([4]; dose 6.9 μg/plate): 203
Number of revertant colonies TA100 ([4]; dose 21 μg/plate): 237
Number of revertant colonies TA100 ([4]; dose 62 μg/plate): 185
Number of revertant colonies TA100 ([4]; dose 185 μg/plate): 151
Number of revertant colonies TA100 ([4]; dose 556 μg/plate): 119
Number of revertant colonies TA100 ([4]; dose 1667 μg/plate): 100
Number of revertant colonies TA98 ([2]; dose 2.3 μg/plate): 39
Number of revertant colonies TA98 ([2]; dose 6.9 μg/plate): 42
Number of revertant colonies TA98 ([2]; dose 21 μg/plate): 52
Number of revertant colonies TA98 ([2]; dose 62 μg/plate): 47
Number of revertant colonies TA98 ([2]; dose 185 μg/plate): 49
Number of revertant colonies TA98 ([2]; dose 556 μg/plate): 51
Number of revertant colonies TA98 ([2]; dose 1667 μg/plate): 57
Number of revertant colonies TA98 ([2]; dose 5000 μg/plate): 88
Number of revertant colonies WP2uvrA (Escherichia coli WP2uvrA; dose 2.3 μg/plate): 31
Number of revertant colonies WP2uvrA (Escherichia coli WP2uvrA; dose 21 μg/plate): 24
Number of revertant colonies WP2uvrA (Escherichia coli WP2uvrA; dose 185 μg/plate): 23
Number of revertant colonies WP2uvrA (Escherichia coli WP2uvrA; dose 556 μg/plate): 32
Number of revertant colonies WP2uvrA (Escherichia coli WP2uvrA; dose 1667 μg/plate): 28
Number of revertant colonies WP2uvrA (Escherichia coli WP2uvrA; dose 5000 μg/plate): 28
Number of revertant colonies TA1537 ([3]; dose 2.3 μg/plate): 14
Number of revertant colonies TA1537 ([3]; dose 6.9 μg/plate): 20
Number of revertant colonies TA1537 ([3]; dose 62 μg/plate): 18
Number of revertant colonies TA1537 ([3]; dose 185 μg/plate): 15
Number of revertant colonies TA1537 ([3]; dose 556 μg/plate): 15
Number of revertant colonies TA1537 ([3]; dose 1667 μg/plate): 19
Number of revertant colonies TA1537 ([3]; dose 5000 μg/plate): 24
